Common to all, as to format: binding
One experiment deals with double-stranded DNA. The experiment in a line: Detecting double-stranded DNA in solution (fluorescence microplate reader). How it is done: Samples containing 0.1 ng/mL to 1 microgram/mL double-stranded DNA are prepared in 10 mM Tris-HCl, 1 mM EDTA, pH 7.5. The selected dye of the invention is dissolved in DMSO at a concentration of 1-10 mM and then diluted into the same buffer at a concentration sufficient to achieve final optical densities of 0.1 and 0.01 at 500 nm, 530 nm, 540 nm or 560 nm. Equal volumes (100 microliters each) of DNA sample solution and dye solution at each concentration are combined and mixed gently at room temperature in a microplate well.
Samples are allowed to equilibrate for 5-60 minutes, protected from light, and the fluorescence of the sample is measured using a fluorescence microplate reader. DNA concentration is determined by comparison of the sample fluorescence with a standard curve obtained with that dye for each dye concentration. The sensitivity limit of several dyes in this assay is shown (Table 5).

In experiment [1] the test system is double-stranded bacteriophage λ cl857 DNA that is digested with HindIII restriction endonuclease. The experiment in a line: Detecting nucleic acids in gels. The conditions noted are these: 1 micromolar dye. As for the experimental part: DNA samples are loaded onto agarose or polyacrylamide gels and electrophoresed using standard conditions. Selected dyes of the invention are dissolved in DMSO at a concentration of 1-10 micromolar and diluted into 0.5×TBE buffer to a final concentration of 1 micromolar dye. Gels are incubated for 20-90 minutes in this staining solution, with gentle agitation, at room temperature, protected from light. Nucleic acids are visualized by transillumination at 300 nm, followed by direct visual detection or photography using Polaroid black-and-white print film. Nucleic acids are alternatively visualized by scanning using a FMBIO II laser scanner with a 532 nm frequency-doubled YAG laser source or a charge-coupled device camera system coupled with an ultraviolet (300 nm) light source, or a visible light transilluminator.

The subject of experiment [2] is Escherichia coli ribosomal RNA. The experiment in a line: Detecting RNA in solution. As for the experimental part:
Selected dyes of the invention are dissolved in DMSO at 1-10 micromolar concentration, then diluted into 10 mM Tris-HCl, 1 mM EDTA, pH 7.5 to a final optical density of 0.1 or 0.01 at 530 nm or 540 nm. These dye solutions are combined with an equal volume of Escherichia coli ribosomal RNA at concentrations ranging from 0.25 ng/mL to 1 microgram/mL in microplate wells. The resulting mixtures are mixed gently and incubated for 5-60 minutes at room temperature, protected from light, and the sample fluorescence is measured.

Experiment [3] concerns double-stranded bacteriophage λ cl857 DNA that is digested with HindIII restriction endonuclease. The experiment in a line: Detecting nucleic acids in gels. The conditions noted are these: POLAROID 667 B&W film; FOTODYNE 254 nm epi.; 1 micromolar dye.
Experiment [4] has as its system 18-base oligodeoxynucleotide sequencing primer. Kind of experiment: Detecting oligonucleotides in solution. How it is done: Selected dyes of the invention are dissolved in DMSO at 1-10 micromolar concentration, then diluted into 10 mM Tris-HCl, 1 mM EDTA, pH 7.5 to a final optical density of 0.1 or 0.01 at 530 nm or 540 nm. The resulting dye solutions are combined with an equal volume of an 18-base oligodeoxynucleotide sequencing primer solution at concentrations of 0.1 ng/mL to 1 microgram/mL in the same buffer. The resulting mixture is mixed gently and incubated for 5-60 minutes at room temperature, protected from light, and the sample fluorescence is measured in a fluorescence microplate reader.

Where [5] appears, read: Excitation 540 nm/Emission 570 nm.
[6] abbreviates: BOEHRINGER MANNHEIM LUMIIMAGER CCD, 300 nm trans., 520 nm em.
[7] abbreviates: BOEHRINGER MANNHEIM LUMIIMAGER CCD, 300 nm trans., 545 nm em.
The mark [8] stands for this setting: HITACHI FMBIO II laser scanner, 532 nm freq.-doubled YAG laser.
Setting [9] is: POLAROID 667 B&W film, FOTODYNE 300 nm trans.
Setting [10] is: Excitation 530 nm/Emission 560 nm.
Where [11] appears, read: POLAROID 667 B&W film, DARK READER visible light box.
Setting [12] is: Excitation 500 nm/Emission 560 nm.
Setting [13] is: Excitation 560 nm/Emission 585 nm.

The source of these data is US8883415B2, “Aza-benzazolium containing cyanine dyes” (Life Technologies Corporation, priority 1999, dated 2014).

SMILES strings stand for the structures. Some results are limits rather than exact numbers.

Turning to `CN1C=C/C(=C\c2sc3ncccc3[n+]2C)c2ccccc21.[I-]` [Compound 33], in the experiment with double-stranded DNA (setting [5]), the “Sensitivity Limit, High dye concentration (0.1 OD)” value (from here on “Sensitivity Limit … (0.1 OD)”) came to 100 ng/mL and the “Sensitivity Limit, Low dye concentration (0.01 OD)” value (“Sensitivity Limit … (0.01 OD)” below) is more than 10 ng/mL.

On to `CCN1C(c2ccccc2)=C/C(=C\c2nc3c(ccc[n+]3C)o2)c2cc3c(cc21)OCO3.[I-]` [Compound 18], for which the “Sensitivity for detecting double-stranded DNA in agarose gels” value (“Sensitivity … in agarose gels” for short) worked out at 210 pg in experiment [1] (setting [6]); 100 pg in experiment [1] (setting [7]); 50 pg in experiment [1] (setting [8]); 120 pg in experiment [1] (setting [9]); 60 pg in experiment [3]. Also, the “Sensitivity Limit … (0.1 OD)” value in experiment [2] (setting [10]) is 10 ng/mL; in the experiment on double-stranded DNA (setting [10]), less than 10 ng/mL; in experiment [4] (setting [10]) it was less than 10 ng/mL. The “Sensitivity Limit … (0.01 OD)” value in experiment [2] (setting [10]) is 1.2 ng/mL; in the experiment with double-stranded DNA (setting [10]), 0.2 to 0.5 ng/mL; in experiment [4] (setting [10]), more than 10 ng/mL.

`CCCCC1=C/C(=C\c2nc3c(ccc[n+]3C)o2)c2ccccc2N1c1ccccc1.[I-]` [Compound 15]: the “Sensitivity … in agarose gels” value in experiment [1] (setting [6]) is given as 210 pg; in experiment [1] (setting [7]), 100 pg; in experiment [1] (setting [8]) it was 100 pg; in experiment [1] (setting [11]), 480 pg; in experiment [1] (setting [9]), 240 pg; in experiment [3], 60 pg. The “Sensitivity Limit … (0.1 OD)” value in the experiment on double-stranded DNA (setting [10]) came to 10 ng/mL. Besides, the “Sensitivity Limit … (0.01 OD)” value in the experiment on double-stranded DNA (setting [10]) was 0.5 ng/mL.

As to `CC1/C(=C/c2nc3c(ccc[n+]3C)o2)C=Cc2ccccc21.Cc1ccc(S(=O)(=O)[O-])cc1` (stereo not drawn) [Compound 53], in the experiment on double-stranded DNA (setting [12]), the “Sensitivity Limit … (0.1 OD)” value was found to be 10 ng/mL and the “Sensitivity Limit … (0.01 OD)” value was more than 10 ng/mL.

Take `CN1C=C/C(=C\c2nc3c(cc(Cl)c[n+]3C)s2)c2ccccc21.[I-]` [Compound 40]: in the experiment on double-stranded DNA (setting [13]), the “Sensitivity Limit … (0.1 OD)” value came to 10 ng/mL and the “Sensitivity Limit … (0.01 OD)” value is 1.0 ng/mL.

For the compound `CN1C=C/C(=C\c2nc3c(cc(Cl)c[n+]3C)s2)c2ccccc21.[I-]` [Compound 38], in the experiment with double-stranded DNA (setting [13]), the “Sensitivity Limit … (0.1 OD)” value is 200 ng/mL and the “Sensitivity Limit … (0.01 OD)” value is 5.0 ng/mL.

With `CCN(CC)C1=C/C(=C\c2nc3c(ccc[n+]3C)o2)c2ccccc2N1c1ccccc1` [Compound 30], in the experiment on double-stranded DNA (setting [10]), the “Sensitivity Limit … (0.1 OD)” value stood at 10 ng/mL and the “Sensitivity Limit … (0.01 OD)” value was found to be 1.0 ng/mL.

Take `COc1ccc2c(c1)N(C)C(c1ccccc1)=C/C2=C\c1nc2c(ccc[n+]2C)o1.[I-]` [Compound 21]: the “Sensitivity … in agarose gels” value in experiment [1] (setting [6]) was found to be 420 pg; in experiment [1] (setting [7]), 50 pg; in experiment [1] (setting [8]), 50 pg; in experiment [1] (setting [9]) it was 120 pg; in experiment [3] it was 60 pg. Further, the “Sensitivity Limit … (0.1 OD)” value in the experiment with double-stranded DNA (setting [10]) was less than 10 ng/mL. In the experiment on double-stranded DNA (setting [10]), the “Sensitivity Limit … (0.01 OD)” value came to 0.2 ng/mL.

Take `CN1C=CC(Cc2sc3c(F)nc(F)c(F)c3[n+]2C)c2ccccc21.[I-]` (stereo not drawn) [Compound 49]: in the experiment on double-stranded DNA (setting [12]), the “Sensitivity Limit … (0.1 OD)” value turned out to be 20 ng/mL and the “Sensitivity Limit … (0.01 OD)” value is more than 10 ng/mL.

Regarding `CN1C=C/C(=C\c2nc3c(cc(Cl)c[n+]3C)s2)c2ccccc21.[I-]` [Compound 39], in the experiment with double-stranded DNA (setting [13]), the “Sensitivity Limit … (0.1 OD)” value came to 10 ng/mL and the “Sensitivity Limit … (0.01 OD)” value worked out at 5.0 ng/mL.

Consider `C[n+]1cccc2oc(/C=C3\C=C(c4ccccc4)N(c4ccccc4)c4ccccc43)nc21.[I-]` [Compound 17], for which, in the experiment on double-stranded DNA (setting [10]), the “Sensitivity Limit … (0.1 OD)” value is less than 10 ng/mL and the “Sensitivity Limit … (0.01 OD)” value was 2.0 ng/mL.

Consider `CN1C=C/C(=C\c2nc3c(cc(Cl)c[n+]3C)s2)c2ccccc21.[I-]` [Compound 35], for which, in the experiment with double-stranded DNA (setting [5]), the “Sensitivity Limit … (0.1 OD)” value turned out to be 10 ng/mL and the “Sensitivity Limit … (0.01 OD)” value came out at 0.5 ng/mL.

Regarding `CN1C=C/C(=C\c2nc3c(ccc[n+]3C)o2)c2ccccc21.Cc1ccc(S(=O)(=O)[O-])cc1` [Compound 48], in the experiment with double-stranded DNA (setting [12]), the “Sensitivity Limit … (0.1 OD)” value was 10 ng/mL and the “Sensitivity Limit … (0.01 OD)” value is more than 10 ng/mL.

As to `CCN(CC)Cc1ccc(C2=C/C(=C\c3nc4c(ccc[n+]4C)o3)c3cc(OC)ccc3N2C)cc1.[I-]` [Compound 23], the “Sensitivity … in agarose gels” value in experiment [1] (setting [6]) turned out to be 830 pg; in experiment [1] (setting [7]) it was 100 pg; in experiment [1] (setting [8]) it was 5 pg; in experiment [1] (setting [11]) it was 240 pg; in experiment [1] (setting [9]) it was 120 pg; in experiment [3] it was 60 pg. Moreover, the “Sensitivity Limit … (0.1 OD)” value in experiment [2] (setting [5]) is 200 ng/mL; in the experiment on double-stranded DNA (setting [5]) it was less than 10 ng/mL; in experiment [4] (setting [5]), less than 10 ng/mL. For the same compound, the entries for the “Sensitivity Limit … (0.01 OD)” value (in experiment [2] (setting [5]); in the experiment with double-stranded DNA (setting [5]); in experiment [4] (setting [5])) were 2.5 ng/mL, 0.2 ng/mL and 1.0 ng/mL, respectively.

With `CN1C=C/C(=C\c2nc3cc[n+](C)cc3o2)c2ccccc21.[I-]` [Compound 31], in the experiment on double-stranded DNA (setting [10]), the “Sensitivity Limit … (0.1 OD)” value came out at 50 ng/mL and the “Sensitivity Limit … (0.01 OD)” value was determined as 2.0 ng/mL.

Consider `C[n+]1cccc2oc(/C=C3\C=C(Cl)N(c4ccccc4)c4ccccc43)nc21` [Compound 29], for which, in the experiment on double-stranded DNA (setting [5]), the “Sensitivity Limit … (0.1 OD)” value is 100 ng/mL and the “Sensitivity Limit … (0.01 OD)” value was determined as 2.0 ng/mL.

As to `CN1C(Sc2ccccn2)=C/C(=C\c2nc3c(ccc[n+]3C)s2)c2ccccc21.[I-]` [Compound 32], in the experiment with double-stranded DNA (setting [10]), the “Sensitivity Limit … (0.1 OD)” value amounted to 10 ng/mL and the “Sensitivity Limit … (0.01 OD)” value worked out at 1.0 ng/mL.

Regarding `COC1=C/C(=C\c2nc3c(ccc[n+]3C)o2)c2ccccc2N1C` [Compound 54], in the experiment with double-stranded DNA (setting [12]), the “Sensitivity Limit … (0.1 OD)” value is 10 ng/mL and the “Sensitivity Limit … (0.01 OD)” value was determined as 1.0 ng/mL.

On to `COc1ccc2c(c1)/C(=C/c1nc3c(ccc[n+]3C)o1)C=C(c1ccccc1)N2C.[I-]` [Compound 19], for which the “Sensitivity Limit … (0.1 OD)” value in experiment [2] (setting [5]) was 20 ng/mL; in the experiment with double-stranded DNA (setting [5]), less than 10 ng/mL; in experiment [4] (setting [5]) it was less than 10 ng/mL. Further, the “Sensitivity Limit … (0.01 OD)” value in experiment [2] (setting [5]) was 10 ng/mL; in the experiment with double-stranded DNA (setting [5]), 0.5 ng/mL; in experiment [4] (setting [5]), more than 10 ng/mL.

As to `CN1C=C/C(=C\c2nc3c(cc(Cl)c[n+]3C)s2)c2ccccc21.[I-]` [Compound 37], in the experiment on double-stranded DNA (setting [13]), the “Sensitivity Limit … (0.1 OD)” value worked out at 10 ng/mL and the “Sensitivity Limit … (0.01 OD)” value came to 2.0 ng/mL.

As for `CN1C(Cl)=C/C(=C\c2nc3c(cc(Cl)c[n+]3C)s2)c2ccccc21.[Cl-]` [Compound 41], in the experiment on double-stranded DNA (setting [13]), the “Sensitivity Limit … (0.1 OD)” value was 10 ng/mL and the “Sensitivity Limit … (0.01 OD)” value was more than 10 ng/mL.

For the compound `CN1C=C/C(=C\c2nc3c(cc(Cl)c[n+]3C)s2)c2ccccc21.[I-]` [Compound 34], in the experiment on double-stranded DNA (setting [5]), the “Sensitivity Limit … (0.1 OD)” value is less than 10 ng/mL and the “Sensitivity Limit … (0.01 OD)” value was 0.2 ng/mL.
